According to article PMC8955938, “c-Myc Protein Level Affected by Unsymmetrical Bisacridines Influences Apoptosis and Senescence Induced in HCT116 Colorectal and H460 Lung Cancer Cells” (International Journal of Molecular Sciences, 2022):

Tests used:
[1] = test system: MYC gene expression in HCT116 cells; experiment: RT-PCR MYC expression in HCT116; format: cell-based, human; details: HCT116, IC90 doses, 120 h, 2^-ΔΔCt
Description: HCT116, H460, CCD 841 CoN and MRC-5 cells after treatment with UAs were collected, washed twice with ice-cold PBS and resuspended in […] of PBS. mRNA was isolated using High Pure RNA Isolation Kit according to the manufacturer’s instructions (Roche, Basel, Switzerland). Briefly, cells were lysed in lysis-binding buffer and transferred to a filter tube. Contaminating DNA was removed by 15 min incubation of the filter tube with DNase I solution. The filter tube was washed once with buffer I and twice with buffer II, and after centrifugation, total RNA was eluted using the elution buffer. RNA concentration was determined by NanoDrop One (Thermo Scientific); 1 µg of RNA was reverse transcribed using Transcriptor First Strand cDNA Synthesis Kit according to the manufacturer’s instructions (Roche) in 20 µL of reaction containing 1 µg of RNA, […] anchored-oligo(dT)18Primer, 8 mM MgCl2, 20 U of Protector RNase Inhibitor, deoxynucleotide mix (1 mM each) and 22 U of Transcriptor Reverse Transcriptase. The reverse transcription reaction was carried out for 30 min at 55 °C and stopped by heating to 85 °C for 5 min and placing on ice. The cDNA solution was stored at −20 °C until use. […] The relative expression level of MYC and KRAS was quantified using comparative method […]. The results were obtained from three independent experiments, each of which was analyzed at least twice.

[2] = test system: HCT116 cells; experiment: Accelerated senescence (SA-β-gal), HCT116; format: cell-based, human; details: HCT116, IC90 doses, up to 120 h
Description: The accelerated senescence examination was based on the analysis of pH 6.0-dependent β-galactosidase (SA-β-gal) expression together with senescence-related morphology, such as enlarged and flattened cells. HCT116 and H460 cells were seeded in 60 mm plates containing microscope coverslips and treated with UAs for up to 120 h. […] The cells were then washed twice with PBS (pH 6.0) and incubated at pH 6.0 with X-gal (5-bromo-4-chloro-3-indolyl-β-D-[…], substrate for SA-β-gal) staining solution (1 mg/mL X-gal, 40 mmol/L citric acid/sodium phosphate, pH 6.0, 5 mmol/L potassium ferrocyanide, 5 mmol/L potassium ferricyanide, 150 mmol/L NaCl, 2 mmol/L MgCl2). Following overnight incubation at 37 °C, cells were washed twice with PBS and observed under a light microscopy (OLYMPUS BX60; magnification ×200).

[3] = test system: HCT116 spheroids; design: method as in PMID 34684841; details: HCT116 3D spheroids; cited from earlier work
[4] = test system: H460 spheroids; design: method as in PMID 34684841; details: H460 3D spheroids; cited from earlier work
[5] = test system: H460 cells; experiment: Apoptosis in H460, summary of all conducted experiments; format: cell-based, human; details: H460, IC90 doses, 120 h, summary in discussion
Description: Nuclear morphology was examined under a fluorescence microscope (OLYMPUS BX60, […]) after staining with Hoechst 33342. Briefly, after drug treatment, HCT116, H460, CCD 841 CoN and MRC-5 cells were spun onto microscopic slides, fixed with methanol:acetic acid (3:1) for 15 min and stained with Hoechst 33342 (1 mg/mL) for 15 min. Cells were regarded as apoptotic based on the presence of condensed, fragmented chromatin. Enlarged cells containing multiple nuclei were considered as typical of mitotic catastrophe.
Annexin V–FITC binding was performed with an Annexin-V Fluos Staining kit (BD Biosciences, San Jose, CA, USA) according to manufacturer’s protocol. […] Cells were incubated for 15 min at room temperature in the dark, then diluted with 400 µL of binding buffer and analyzed by flow cytometry with FACS Accuri C6 (BD, San Jose, CA, USA). Cells with low FITC and PI fluorescence were considered viable. Cells that presented high FITC fluorescence but low PI fluorescence were regarded as early apoptotic. Late apoptotic cells presented high FITC and PI fluorescence. Necrotic cells had low FITC fluorescence and high PI fluorescence.
Caspase-3 activity was determined using Alexa Fluor 647-conjugated anti-active caspase-3 antibody (BD Biosciences, San Diego, CA, USA) according to the manufacturer’s instructions. […]

SMILES	MYC expression, fold increase [1]	accelerated senescence (SA-β-gal blue staining) [2]	inhibition of spheroids growth [3]	inhibition of spheroids growth [4]	treated cells that underwent apoptosis [5]
O=c1c2ccccc2n2cnc3ccc(NCCCN4CCN(CCCNc5c6ccccc6nc6cccc([N+](=O)[O-])c56)CC4)c1c32 [Compound C-2041]	3.3 fold	a few cells with characteristic blue color were observed	to the least extent	to the least extent	
Cc1ccc([N+](=O)[O-])c2c(NCCCN(C)CCCNc3ccc4ncn5c6ccc(O)cc6c(=O)c3c45)c3ccccc3nc12 [Compound C-2045]	5.3 fold				about 60%
Cc1ccc([N+](=O)[O-])c2c(NCCCN(C)CCCNc3ccc4ncn5c6ccccc6c(=O)c3c45)c3ccccc3nc12 [Compound C-2053]			to the greatest extent	to the greatest extent	about 60%
